We go through 2 compounds from patent US7618774B2, “Materials and methods for identifying genes and/or agents that alter replicative lifespan” (University of Rochester, priority 2003, dated 2009).

“Also recorded” adds a separate entry of the source.

Data set [1] has as its system yeast. The following applies: literature reports; cited from earlier work.
Data set [2] concerns the target Sir2 (Saccharomyces cerevisiae, UniProt P06700). The following applies: in vitro; cited from earlier work.
Data set [3] concerns K6001 cells. Nature of the data set: DEAD assay for replicative lifespan. In kind it is cell-based, S. cerevisiae. From the text:
One yeast strain that can be used in the assays of the present invention is S. cerevisiae strain K6001, which carries two distinct non-native genes (i.e., not contained within a single cassette). This strain was originally developed for the study of mating-type switching (Bobola et al. “Asymmetric Accumulation of Ash1p in Postanaphase Nuclei Depends on a Myosin and Restricts Yeast Mating-Type Switching to Mother Cells,” Cell 84:699-709 (1996), which is hereby incorporated by reference in its entirety). K6001 cells contain two independent copies of CDC6 expressed from either the repressible GAL1or mother-cell specific HO promoters. Cdc6p is an essential protein required for DNA replication. Transcription from the HO promoter in daughter cells is prevented by Ash1p, which is expressed exclusively in daughter cells (Sil, et al., “Identification of Asymmetrically Localized Determinant, Ash1p, Required for Lineage-Specific Transcription of the Yeast HO Gene,” Cell 84:711-22 (1996), which is hereby incorporated by reference in its entirety). When K6001 cells are cultured on galactose, GAL1::CDC6 is expressed in both mother and daughter cells, sustaining the replication of both. However, when the GAL1::CDC6 gene is repressed by glucose, only the mother-specific expression of HO::CDC6 remains to support growth. Given the tight regulation of the GAL1promoter, DNA replication fails and daughter cells arrest after one, or at most a few ectopic cytokineses. As a result, K6001 cultures grow approximately linearly in glucose (daughter cells accumulate and contribute to the optical density of the culture) until the mother cells reach their replicative capacity and cease producing daughter cells. Since Cdc6 is naturally unstable, and the GAL1 promoter is efficiently shut off in glucose, the transition from log growth to linear growth is relatively tight and rapid. […]
The DEAD assay was used to assess the effect of deleting SGS1 on replicative lifespan. […] After 48 hrs at 30° C. the number of daughter cells in each microcolony was counted by microdissection and plotted as a survival curve. […]

The subject of data set [4] is mammalian cells. The following applies: literature reports; cited from earlier work.

Chain of Sir2 (P06700 whole entry): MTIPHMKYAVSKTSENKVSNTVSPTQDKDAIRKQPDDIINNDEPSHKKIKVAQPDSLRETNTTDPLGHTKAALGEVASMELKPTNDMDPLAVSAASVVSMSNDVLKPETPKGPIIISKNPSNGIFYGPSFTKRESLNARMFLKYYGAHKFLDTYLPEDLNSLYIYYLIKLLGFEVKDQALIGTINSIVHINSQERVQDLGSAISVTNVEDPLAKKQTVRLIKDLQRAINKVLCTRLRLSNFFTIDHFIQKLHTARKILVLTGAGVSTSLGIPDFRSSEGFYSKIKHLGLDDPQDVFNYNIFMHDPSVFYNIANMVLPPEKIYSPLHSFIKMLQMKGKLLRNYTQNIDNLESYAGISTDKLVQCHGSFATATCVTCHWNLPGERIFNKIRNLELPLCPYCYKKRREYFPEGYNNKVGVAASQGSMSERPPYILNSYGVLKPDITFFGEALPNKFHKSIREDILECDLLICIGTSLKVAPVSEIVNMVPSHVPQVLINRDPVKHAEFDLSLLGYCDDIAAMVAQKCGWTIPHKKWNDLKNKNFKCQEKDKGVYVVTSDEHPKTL

Turning to `Oc1ccc(C=Cc2cc(O)cc(O)c2)cc1` [resveratrol], the “replicative lifespan of yeast” value in data set [1] is given as “extends the replicative lifespan of yeast”. Further, the Sir2 activation entry in data set [2] is given as “actives Sir2 in vitro”. Besides, the “mean lifespan (replicative)” value in data set [3] (K6001 cells cultured in presence or absence of 10 μM resveratrol, FIG. 3) is given as “significantly extended the mean lifespan; also recorded: longer mean lifespan”.
`C[n+]1ccc(-c2cc[n+](C)cc2)cc1` [paraquat]: the “replicative lifespan of yeast” value in data set [1] is on record as “reduce replicative lifespan in yeast”. Further, the apoptosis entry in data set [4] is given as “induce apoptosis in mammalian cells”. Besides, the “lifespan (replicative)” value in data set [3] (K6001 cells cultured in 5 μM paraquat versus lower concentration, FIG. 4) is “apparently shorter”. Moreover, the “mean lifespan (replicative)” value in data set [3] (K6001 cells, paraquat between 0.1 μM to 5.0 μM, FIG. 4) is “decreased in a dose-dependent fashion”.
